Test results taken from US20230270713A1, “Administration of Resiniferatoxin For Treatment of Bladder Pain or Bladder Cancer” (Sorrento Therapeutics, Inc., priority 2020, published 2023).
Where “and” joins values, the source holds several entries; their conditions need not be identical. Identical values can stand only once.

Tests used:
Format in all cases: in vivo, cat
[1] = Safety monitoring in FIC cats
Experimental: As a way of monitoring the safety of the experiment for the enrolled cats, a physical examination was performed on the cats on Days 14 and 28. Measurements for body weight, body temperature, heart rate and respiratory rate were recorded. Body weight was collected for all cohorts, while the remaining variables were collected for Cohort 1, which received the highest total dose of RTX (25 μg/25 mL). […] Results were also collected for complete blood count (CBC), serum chemistry, urinalysis and culture.

[2] = test system: cats with FIC (Feline Idiopathic Cystitis); experiment: VSOM in cats with Feline Idiopathic Cystitis
Experimental: The effectiveness and safety of a single intravesical instillation with RTX was evaluated for the management of clinical and behavioral signs associated with non-obstructive FIC in cats. The primary effectiveness endpoint was the improvement in a Veterinary-specific Outcome Measure (VSOM) and Cystitis Events Survey on day 28.
The total VSOM is the sum of three individual VSOM scores that each have an integer value in the range of 1 to 5. Each individual VSOM score corresponds to a clinical sign/activity/behavior selected as relevant to FIC for an individual cat by the cat's owner or legal representative with the help of the Investigator. An example of a clinical sign/activity/behavior is pain or resentfulness on palpation. The minimum possible score for each individual VSOM score is 1, which indicates no problem, and the maximum is 5, which indicates an impossible activity/behavior or a maximum severity clinical sign. The minimum and maximum total VSOM scores are 3 and 15. On screening days (e.g., Day 0 and Day 28), the Investigator completed the VSOM questionnaire and assigned a score to each of the 3 clinical signs/activities/behaviours that were selected.
Treatment success was defined as “a reduction of at least 2 in total VSOM score at Day 3 and 28 compared to VSOM score at day 0.” A decrease of less than 2, no change, or an increase in total score was defined as treatment failure. Cats presenting an increase in any individual VSOM score were considered a treatment failure regardless of total VSOM score.
RTX was provided as a 25 μg/mL (2.4 mL) solution, formulated with polysorbate, glucose, and phosphate buffer, and diluted in saline to 1 μg/mL before instillation. Intravesical instillation: After the cat has reached an adequate anesthesia level, the perineal area was prepared using a standard aseptic technique. After preparation, a urinary catheter (type and size decided on a case by case basis) was placed using aseptic technique. Then, the urinary bladder was emptied and flushed with 20 ml of sterile saline. Once the flush solution was removed, the RTX solution was infused through the urinary catheter over 2 minutes. Once the total volume of the solution is infused, the solution was left in the urinary bladder for 20 min. At the end of this period the IVP (investigational veterinary product) solution was removed. Finally, the urinary catheter was removed, and the perineal area was flushed with 20 ml of saline. The total amount of solution removed from the bladder was recorded.
24 cats were treated and the cohorts and their respective IVP treatments are described in the table 9 below. The cohorts were populated and dosed sequentially. Cats enrolled in Cohorts 2, 3 and 4 were dosed at least 3 days after the previous cohort closed.

[3] = test system: cats with FIC (Feline Idiopathic Cystitis); experiment: VSOM in cats with Feline Idiopathic Cystitis; conditions: for VSOM treatment failure, number of cats / VSOM treatment failure, percent of cats: Day 28 vs Day 0
[4] = Plasma concentration of RTX (HPLC) after intravesical instillation in healthy cats
Experimental: (§1) To examine the effect of intravesical instillation of RTX on the bladder, 6 healthy cats, between the 2-5 years of age, were treated with either 5 (low dose), 25 (mid dose) or 50 mcg (high dose) of RTX (volume was 25 ml; concentrations were 0.2, 1, and 2 mcg/ml). These doses are considered equivalent to administration of 20, 100, or 200 mcg in a human with a volume of 100 ml. A seventh cat received saline only and served as the control. The bladders of the anesthetized cats were emptied and then flushed with sterile saline via a foley urinary catheter. Once the saline was removed, the treatment with RTX (test cats) or saline alone (control cat) was administered over 60 seconds and left in the bladder for 20 minutes.
The bladder of each cat was emptied and blood samples for pharmacokinetic analysis were collected pre-RTX treatment and at 0.5, 1, and 4 hours post RTX treatment.

[5] = Tolerability of intravesical RTX in healthy cats (physical exam, blood count, chemistry); conditions: healthy cats, 5, 25 or 50 mcg intravesical, during or post administration
Experimental: as §1
A physical exam, complete blood count and chemistry parameters were performed on day 0, 7, and 14. Complete blood count and chemistry parameters were analyzed at the Clinical Pathology Laboratory at the University of Georgia. Food consumption and signs of abnormal urination were monitored through the study period.

[6] = Overall (Cohorts 1-4), Day 28 vs Day 0
[7] = 6.25 μg (0.25 μg/mL), Day 0, n 6
[8] = 6.25 μg (0.25 μg/mL), Day 28, n 6
[9] = 12.5 μg (0.5 μg/mL), Day 0, n 6
[10] = 12.5 μg (0.5 μg/mL), Day 28, n 5
[11] = 12.5 μg (1.25 μg/mL), Day 0, n 6
[12] = 12.5 μg (1.25 μg/mL), Day 28, n 6

With C=C(C)[C@]12C[C@@H](C)[C@@]34O[C@](Cc5ccccc5)(O[C@@H]1[C@@H]3C=C(COC(=O)Cc1ccc(O)c(OC)c1)C[C@]1(O)C(=O)C(C)=C[C@@H]41)O2 [RTX, resiniferatoxin] the “complete blood count (CBC), serum chemistry, urinalysis and culture” value [1] was “No significant changes were observed”, the “Adverse events in other cohorts” value ([1]; Cohorts 2-4) was “considered unrelated to the treatment or not serious” and the “body weight, body temperature, heart rate and respiratory rate” value ([1]; Days 14 and 28, body weight all cohorts, other variables Cohort 1 (25 μg/25 mL)) was “No clinically significant changes were observed”. For the same molecule, the Tolerability ([1]; all doses, at administration and through 28-day follow-up) was “overall well tolerated”, the “serious adverse events considered related to the treatment” value ([1]; death of a Cohort 1 cat (25 μg/25 mL)) was “One serious adverse event” and the “VSOM, Maximum” value ([2]; 25 μg (1 μg/mL), Day 0, n 6) was 12.0. For the same molecule, the “VSOM, Minimum” value ([2]; 25 μg (1 μg/mL), Day 28, n 5) was 0.0, the “VSOM treatment failure, number of cats” value [2, 6] was 5 n and the “VSOM treatment success, number of cats” value [2, 6] was 17 n. The “VSOM treatment success, percent of cats” value [2, 6] was “(77.2%)”, the “VSOM, Maximum” value [3, 7] was 12.0 and the “VSOM, Mean” value [3, 7] was 10.00. The “VSOM, Median” value [3, 7] was 10.00, the “VSOM, Minimum” value [3, 7] was 8.0 and the “VSOM, Maximum” value [3, 8] was 10.0. The “VSOM, Mean” value [3, 8] was 6.00, the “VSOM, Median” value [3, 8] was 6.50 and the “VSOM, Minimum” value [3, 8] was 1.0. The “VSOM, Maximum” value [3, 9] was 12.0, the “VSOM, Mean” value [3, 9] was 9.67 and the “VSOM, Median” value [3, 9] was 9.50. The “VSOM, Minimum” value [3, 9] was 8.0, the “VSOM, Maximum” value [3, 10] was 4.0 and the “VSOM, Mean” value [3, 10] was 1.60. For the same molecule, the “VSOM, Median” value [3, 10] was 1.00, the “VSOM, Minimum” value [3, 10] was 0.0 and the “VSOM, Maximum” value [3, 11] was 10.0. For the same molecule, the “VSOM, Mean” value [3, 11] was 9.83, the “VSOM, Median” value [3, 11] was 10.00 and the “VSOM, Minimum” value [3, 11] was 9.0. The “VSOM, Maximum” value [3, 12] was 6.0, the “VSOM, Mean” value [3, 12] was 3.83 and the “VSOM, Median” value [3, 12] was 4.00. For the same molecule, the “VSOM, Minimum” value [3, 12] was 2.0, the “VSOM, Mean” value ([3]; 25 μg (1 μg/mL), Day 0, n 6) was 10.00 and the “VSOM, Median” value ([3]; 25 μg (1 μg/mL), Day 0, n 6) was 10.00. For the same molecule, the “VSOM, Minimum” value ([3]; 25 μg (1 μg/mL), Day 0, n 6) was 9.0, the “VSOM, Maximum” value ([3]; 25 μg (1 μg/mL), Day 28, n 5) was 4.0 and the “VSOM, Mean” value ([3]; 25 μg (1 μg/mL), Day 28, n 5) was 1.80. For the same molecule, the “VSOM, Median” value ([3]; 25 μg (1 μg/mL), Day 28, n 5) was 1.00, the “VSOM treatment failure, number of cats” value ([3]; Cohort 1 25 μg/25 mL) was 0 n and the “VSOM treatment failure, percent of cats” value ([3]; Cohort 1 25 μg/25 mL) was 0.0%. For the same molecule, the “VSOM treatment failure, number of cats” value ([3]; Cohort 2 6.25 μg/25 mL) was 3 n, the “VSOM treatment failure, percent of cats” value ([3]; Cohort 2 6.25 μg/25 mL) was 50.0% and the “VSOM treatment failure, number of cats” value ([3]; Cohort 3 12.5 μg/25 mL) was 0 n. The “VSOM treatment failure, percent of cats” value ([3]; Cohort 3 12.5 μg/25 mL) was 0.0%, the “VSOM treatment failure, number of cats” value ([3]; Cohort 4 12.5 μg/10 mL) was 2 n and the “VSOM treatment failure, percent of cats” value ([3]; Cohort 4 12.5 μg/10 mL) was 33.3%. The “VSOM treatment failure, percent of cats” value ([3]; Overall (Cohorts 1-4)) was “(22.8%)”, the “Plasma concentration of RTX” value ([4]; 5 mcg total intravesical, 0 h, individual cats) was “BQL (BQL = Below the Quantifiable Limit (<50.0 pg/mL).)” and the “Plasma concentration of RTX” value ([4]; 5 mcg total intravesical, 0.5 h, individual cats) was “BQL (BQL = Below the Quantifiable Limit (<50.0 pg/mL).)”. For the same molecule, the “Plasma concentration of RTX” value ([4]; 5 mcg total intravesical, 1 h, individual cats) was “BQL (BQL = Below the Quantifiable Limit (<50.0 pg/mL).)”, the “Plasma concentration of RTX” value ([4]; 5 mcg total intravesical, 4 h, individual cats) was “BQL (BQL = Below the Quantifiable Limit (<50.0 pg/mL).)” and the “Plasma concentration of RTX” value ([4]; 25 mcg total intravesical, 0 h, individual cats) was “BQL (BQL = Below the Quantifiable Limit (<50.0 pg/mL).)”. The “Plasma concentration of RTX” value ([4]; 25 mcg total intravesical, 0.5 h, individual cats) was 55.5 pg/ml and 10.1* pg/ml, the “Plasma concentration of RTX” value ([4]; 25 mcg total intravesical, 1 h, individual cats) was “BQL (BQL = Below the Quantifiable Limit (<50.0 pg/mL).)” and the “Plasma concentration of RTX” value ([4]; 25 mcg total intravesical, 4 h, individual cats) was “BQL (BQL = Below the Quantifiable Limit (<50.0 pg/mL).)”. The “Plasma concentration of RTX” value ([4]; 50 mcg total intravesical, 0 h, individual cats) was “BQL (BQL = Below the Quantifiable Limit (<50.0 pg/mL).)”, the “Plasma concentration of RTX” value ([4]; 50 mcg total intravesical, 0.5 h, individual cats) was “BQL (BQL = Below the Quantifiable Limit (<50.0 pg/mL).)” and the “Plasma concentration of RTX” value ([4]; 50 mcg total intravesical, 1 h, individual cats) was “BQL (BQL = Below the Quantifiable Limit (<50.0 pg/mL).)”. For the same molecule, the “Plasma concentration of RTX” value ([4]; 50 mcg total intravesical, 4 h, individual cats) was “BQL (BQL = Below the Quantifiable Limit (<50.0 pg/mL).)”, the “Plasma levels of RTX” value ([4]; all 3 groups, all time points (0, 0.5, 1, 4 h) except 0.5 h (25, 50 mcg) and 1 h (25 mcg)) was “below 50 pg/mL” and the RTX in plasma ([4]; all groups, 4 hours) was “below quantifiable levels”. For the same molecule, the concentration at 1 h ([4]; cat, plasma, other: intravesical instillation, 25 mcg, 25 mcg total intravesical, 1 h, individual cats) was 0.0135 ng/mL, the concentration at 0.5 h ([4]; cat, plasma, other: intravesical instillation, 50 mcg, 50 mcg total intravesical, 0.5 h, individual cats) was 0.00877 ng/mL and the “Tolerability / clinical adverse effects” value [5] was “well tolerated with no clinical adverse effects noted”.
